Test results taken from ChEMBL document CHEMBL5131393 (J Med Chem, 2021).

Key:
[1] = target: Human immunodeficiency virus type 1 reverse transcriptase (Human immunodeficiency virus 1, UniProt Q72547); experiment: Inhibition of recombinant HIV-1 reverse transcriptase incubated for 2 hrs by colorimetric assay
[2] = system: Human immunodeficiency virus 1; experiment: Antiviral activity against HIV-1 pseudovirus infected in human TZM-bl cells preincubated with virus for 30 mins followed by cell infection and measured after 3 days by luciferase assay; type: functional, organism-based; details: Human immunodeficiency virus 1, TZM-bl
[3] = system: TZM; experiment: Cytotoxicity against human TZM-bl cells assessed as reduction in cell viability measured after 3 days by XTT assay; type: functional; details: 72 h, time 3 day
[4] = target: Human immunodeficiency virus type 1 reverse transcriptase (Human immunodeficiency virus 1) (UniProt Q72547); experiment: Potency index, ratio of test compound IC50 to NBD-14189 IC50 for inhibition of recombinant HIV-1 reverse transcriptase incubated for 2 hrs by colorimetric assay

Row | Compound | IC50 [1] [µM] | EC50 [2] [µM] | CC50 [3] [µM] | Ratio IC50 [4]
1 | NC[C@H](NC(=O)c1ccc(-c2ccc(C(F)(F)F)cc2)[nH]1)c1nc(CO)cs1 | 1.5 | 0.089 | 21.9 | –
2 | CC1(C)CC(NC(=O)C(=O)Nc2ccc(Cl)cc2)CC(C)(C)N1 | > 200 | – | 60 | –
3 | Cc1nc([C@@H](CN)NC(=O)c2ccc(-c3ccc(F)c(F)c3)[nH]2)sc1CO | – | 3.3 | 84.1 | –
4 | Cc1nc(C(CNC2CCC2)NC(=O)c2ccc(-c3ccc(Cl)cc3)[nH]2)sc1CO (single isomer, unassigned) | 43.4 | 2.2 | 24 | 31
5 | Cc1cc(-c2ccc(C(F)(F)F)cn2)[nH]c1C(=O)N[C@@H](CN)c1ncc(CO)s1 | – | – | 109 | 2
6 | NC[C@H](NC(=O)c1ccc(-c2ccc(C(F)(F)F)cn2)[nH]1)c1nc(CO)cs1 | 2.8 | 0.3 | 124 | –
7 | NC[C@H](NC(=O)c1ccc(-c2cc(F)c(Cl)c(F)c2)[nH]1)c1ncc(CO)s1 | 8.4 | – | 39.5 | –
8 | NC[C@@H](NC(=O)c1ccc(-c2ccc(C(F)(F)F)cn2)[nH]1)c1ncc(C(O)CO)s1 (stereo partly drawn) | – | 2.1 | > 113 | –
9 | CNCc1cc(-c2ccc3c(c2)OCO3)[nH]c1C(=O)NCc1nc(S)c(CO)s1 | – | 2.7 | 95.8 | –
10 | Cc1nc([C@H](CN)NC(=O)c2ccc(-c3ccc(Cl)c(F)c3)[nH]2)sc1CO | 8.3 | – | 40.5 | –
11 | NC[C@@H](NC(=O)c1ccc(-c2ccc(Cl)c(F)c2)[nH]1)c1ncc(CO)s1 | 13.7 | 0.57 | 33 | –
12 | Cc1sc(C(CO)NC(=O)c2[nH]c(-c3ccc4c(c3)OCO4)cc2CN)nc1S (stereo not drawn) | 30.6 | 2.3 | 146 | –
13 | NCc1cc(-c2ccc3c(c2)OCO3)[nH]c1C(=O)NC(CO)c1nc(S)cs1 (stereo not drawn) | 39.5 | 4.3 | 142 | –
14 | Cc1cc(-c2ccc(C(F)(F)F)cn2)[nH]c1C(=O)N[C@H](CN)c1nc(CO)cs1 | 5 | – | 85 | –
15 | Cc1ccc(-c2ccc(C(=O)N[C@H](CN)c3ncc(CO)s3)[nH]2)cc1F | 7.2 | 0.45 | 38.8 | –
